Measurements taken from the NIST ThermoML archive (doi:10.1016/j.jct.2006.10.008).
Numbers after ± are expanded uncertainties.

Legend:
[1] = xn = mol fraction of the nth substance listed; settings: 298.15 K, 101 kPa, Liquid
[2] = excess molar enthalpy (molar enthalpy of mixing); xn = mol fraction of the nth substance listed; settings: 298.15 K, 101 kPa, Liquid, Calvet calorimetry

CCCCCOC=O [pentyl methanoate] + ClCCCl
Settings	excess molar enthalpy [kcal/mol]	mass density [kg/m3]
[1], x1 = 0.0396	–	1221.77 ± 0.77
[1], x1 = 0.0779	–	1199.93 ± 0.72
[1], x1 = 0.1181	–	1178.31 ± 0.68
[1], x1 = 0.1601	–	1156.97 ± 0.64
[1], x1 = 0.2047	–	1135.53 ± 0.59
[1], x1 = 0.2505	–	1114.67 ± 0.55
[1], x1 = 0.3008	–	1093.1 ± 0.51
[1], x1 = 0.3529	–	1072.02 ± 0.47
[1], x1 = 0.4074	–	1051.23 ± 0.42
[1], x1 = 0.4655	–	1030.4 ± 0.38
[1], x1 = 0.5288	–	1009.11 ± 0.34
[1], x1 = 0.5948	–	988.32 ± 0.34
[1], x1 = 0.6639	–	967.94 ± 0.36
[1], x1 = 0.7399	–	946.95 ± 0.39
[1], x1 = 0.8201	–	926.19 ± 0.41
[1], x1 = 0.906	–	905.54 ± 0.44
[2], x1 = 0.0406	-0.0082 ± 0.000263	–
[2], x1 = 0.0934	-0.0198 ± 0.000359	–
[2], x1 = 0.1501	-0.0337 ± 0.000454	–
[2], x1 = 0.2054	-0.0459 ± 0.00055	–
[2], x1 = 0.2613	-0.0583 ± 0.000645	–
[2], x1 = 0.3157	-0.0674 ± 0.000717	–
[2], x1 = 0.3653	-0.0765 ± 0.000789	–
[2], x1 = 0.4153	-0.08382 ± 0.000837	–
[2], x1 = 0.4604	-0.08886 ± 0.000884	–
[2], x1 = 0.5014	-0.09156 ± 0.000884	–
[2], x1 = 0.5593	-0.0925 ± 0.000908	–
[2], x1 = 0.6338	-0.08788 ± 0.00086	–
[2], x1 = 0.7235	-0.075 ± 0.000765	–
[2], x1 = 0.8158	-0.055 ± 0.000621	–
[2], x1 = 0.9141	-0.0302 ± 0.00043	–

ClCCCCl [1,3-dichloropropane] + CCOC=O
Settings	excess molar enthalpy [kcal/mol]	mass density [kg/m3]
[1], x2 = 0.0758	–	1161.82 ± 0.64
[1], x2 = 0.1392	–	1147.48 ± 0.62
[1], x2 = 0.2059	–	1132.04 ± 0.58
[1], x2 = 0.2686	–	1117.5 ± 0.56
[1], x2 = 0.336	–	1101.45 ± 0.52
[1], x2 = 0.3983	–	1086.31 ± 0.49
[1], x2 = 0.4584	–	1071.44 ± 0.46
[1], x2 = 0.5183	–	1056.42 ± 0.43
[1], x2 = 0.5752	–	1041.98 ± 0.41
[1], x2 = 0.6319	–	1027.35 ± 0.38
[1], x2 = 0.6884	–	1012.54 ± 0.35
[1], x2 = 0.7433	–	997.87 ± 0.33
[1], x2 = 0.7967	–	983.56 ± 0.34
[1], x2 = 0.849	–	969.23 ± 0.36
[1], x2 = 0.9005	–	954.87 ± 0.38
[1], x2 = 0.949	–	941.1 ± 0.39
[2], x2 = 0.1171	0.00817 ± 0.000263	–
[2], x2 = 0.2311	0.0165 ± 0.000311	–
[2], x2 = 0.3403	0.0202 ± 0.000335	–
[2], x2 = 0.435	0.0196 ± 0.000335	–
[2], x2 = 0.5147	0.0165 ± 0.000311	–
[2], x2 = 0.5813	0.0124 ± 0.000287	–
[2], x2 = 0.6354	0.00894 ± 0.000263	–
[2], x2 = 0.682	0.00588 ± 0.000239	–
[2], x2 = 0.7186	0.00296 ± 0.000215	–
[2], x2 = 0.7381	-0.0037 ± 0.000215	–
[2], x2 = 0.7773	-0.00679 ± 0.000239	–
[2], x2 = 0.8208	-0.0092 ± 0.000263	–
[2], x2 = 0.8622	-0.0105 ± 0.000263	–
[2], x2 = 0.9018	-0.00858 ± 0.000263	–
[2], x2 = 0.9383	-0.00452 ± 0.000215	–
[2], x2 = 0.9723	-0.000287 ± 0.000191	–

CCCOC=O [propyl methanoate] + ClCCCCCCCl
Settings	excess molar enthalpy [kcal/mol]	mass density [kg/m3]
[1], x1 = 0.0918	–	1053.78 ± 0.43
[1], x1 = 0.1702	–	1044.88 ± 0.41
[1], x1 = 0.2469	–	1035.63 ± 0.39
[1], x1 = 0.3218	–	1026.16 ± 0.37
[1], x1 = 0.3877	–	1017.4 ± 0.36
[1], x1 = 0.4551	–	1008 ± 0.34
[1], x1 = 0.5167	–	998.95 ± 0.32
[1], x1 = 0.5747	–	990.06 ± 0.33
[1], x1 = 0.6303	–	981.16 ± 0.34
[1], x1 = 0.6844	–	972.09 ± 0.36
[1], x1 = 0.7354	–	963.2 ± 0.37
[1], x1 = 0.7849	–	954.19 ± 0.38
[1], x1 = 0.8768	–	936.4 ± 0.4
[1], x1 = 0.9196	–	927.69 ± 0.41
[1], x1 = 0.9603	–	919.06 ± 0.42
[2], x1 = 0.083	0.0159 ± 0.000311	–
[2], x1 = 0.1781	0.0287 ± 0.000406	–
[2], x1 = 0.2715	0.0378 ± 0.000478	–
[2], x1 = 0.3516	0.0422 ± 0.000502	–
[2], x1 = 0.4261	0.0428 ± 0.000526	–
[2], x1 = 0.5	0.0403 ± 0.000502	–
[2], x1 = 0.5567	0.0351 ± 0.000454	–
[2], x1 = 0.6558	0.0259 ± 0.000382	–
[2], x1 = 0.7057	0.0203 ± 0.000335	–
[2], x1 = 0.7584	0.015 ± 0.000311	–
[2], x1 = 0.815	0.00994 ± 0.000263	–
[2], x1 = 0.8628	0.00602 ± 0.000239	–
[2], x1 = 0.91	0.00292 ± 0.000215	–
[2], x1 = 0.9591	0.00213 ± 0.000215	–
